Patent publication US20080039437A1, “New Pyridine Analogues III” (ASTRAZENECA AB, priority 2006, published 2008)

Biological target: T1, P2Y12 receptor (Homo sapiens, UniProt Q9H244)
T1 construct: expressed in transfected cells; host or cells: CHO cells (membranes)
Assay: Functional inhibition of 2-Me-S-ADP induced P2Y12 signalling (35S-GTPγS, cell membranes)
Type: biochemical
Conditions: membranes from P2Y12 transfected CHO-cells, EC80 of agonist 2-methyl-thio-adenosine diphosphate, 30° C., 45 min
Procedure: Functional inhibition of the P2Y12 receptor can be measured by in vitro assays using cell membranes from P2Y12 transfected CHO-cells, the methodology is indicated below.
Functional inhibition of 2-Me-S-ADP induced P2Y12 signalling: 5 μg of membranes were diluted in 200 μl of 200 mM NaCl, 1 mM MgCl2, 50 mM HEPES (pH 7.4), 0.01% BSA, 30 μg/ml saponin and 10 μM GDP. To this was added an EC80 concentration of agonist (2-methyl-thio-adenosine diphosphate), the required concentration of test compound and 0.1 μCi ^35S-GTPγS. The reaction was allowed to proceed at 30° C. for 45 min. Samples were then transferred on to GF/B filters using a cell harvester and washed with wash buffer (50 mM Tris (pH 7.4), 5 mM MgCl2, 50 mM NaCl). Filters were then covered with scintillant and counted for the amount of ^35S-GTPγS retained by the filter. Maximum activity was that determined in the presence of the agonist and minimum activity in the absence of the agonist following subtraction of the value determined for non-specific activity. The effect of compounds at various concentrations was plotted according to the equation y=A+((B−A)/(1+((C/x)ˆD))) and IC50 estimated where
A is the bottom plateau of the curve i.e. the final minimum y value
B is the top of the plateau of the curve i.e. the final maximum y value
C is the x value at the middle of the curve. This represents the log EC50 value when A+B=100 […]

T1 sequence (Q9H244 whole entry): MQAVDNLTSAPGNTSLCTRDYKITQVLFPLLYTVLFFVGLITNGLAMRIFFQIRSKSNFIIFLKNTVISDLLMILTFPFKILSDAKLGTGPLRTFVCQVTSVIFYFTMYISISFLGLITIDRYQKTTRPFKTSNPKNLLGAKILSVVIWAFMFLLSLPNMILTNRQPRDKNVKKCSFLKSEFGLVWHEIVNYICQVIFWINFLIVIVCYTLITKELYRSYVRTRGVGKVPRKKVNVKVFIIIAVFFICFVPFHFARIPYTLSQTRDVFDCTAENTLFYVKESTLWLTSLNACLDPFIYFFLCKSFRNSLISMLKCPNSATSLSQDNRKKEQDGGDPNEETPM

| IC50 [nM] | SMILES |
| --- | --- |
| 490 | CCCCS(=O)(=O)NC(=O)C1CCN(c2nc(C(F)F)c(C(=O)OCC)cc2C#N)CC1 [Example 41, Ethyl 6-(4-{[(butylsulfonyl)amino]carbonyl}piperidin-1-yl)-5-cyano-2-(difluoromethyl)nicotinate] |
| 270 | CCOC(=O)c1cc(C#N)c(N2CC(C(=O)NS(=O)(=O)CC3CCC(C)CC3)C2)nc1CF (centres unmarked) [Example 74, Ethyl 5-cyano-2-(fluoromethyl)-6-{3-[({[(4-methylcyclohexyl)methyl]sulfonyl}amino)carbonyl]azetidin-1-yl}nicotinate] |
